Data reported in patent publication US6653081B2, “Methods for monitoring antiretroviral therapy and guiding therapeutic decision in the treatment of HIV/AIDS” (ViroLogic, Inc., priority 2000, dated 2003).
“And” between values parts separate entries of the source, which are not always exact repeats. Equal values may be shown once.

Tested on: M230L-RTV
Assay: Phenotypic susceptibility assay, M230L-RTV
Type: cell-based, HIV-1
Details: site-directed M230L alone
From the text: (§1) The resistance test vectors containing a functional luciferase gene cassette were constructed and host cells were transfected with the resistance test vector DNA. The resistant test vectors contained patient-derived reverse transcriptase and protease sequences that were either susceptible or resistant to the antiretroviral agents, such as nucleoside reverse transcriptase inhibitors, (NRTIs) non-nucleoside reverse transcriptase inhibitors […] protease inhibitors. The resistance test vector viral particles produced by transfecting the resistance test vector DNA into host cells, either in the presence or absence of PRIs, were used to infect target host cells grown either in the absence of NRTIs or NNRTIs, or in the presence of increasing concentrations of the drug. The amount of luciferase activity produced in infected target host cells in the presence of varying concentrations of drug was compared to the amount of luciferase produced in infected target host cells in the absence of drug. “Drug resistance” was measured as the amount of drug required to inhibit by 50% the luciferase activity detected in the absence of drug (inhibitory concentration 50%, IC50). The IC50 values were determined by plotting percent drug inhibition vs. log10 drug concentration. Stimulation of viral replication was measured as the percent increase in luciferase activity detected when infection occurs in the presence of drug as compared to in the absence of drug.
(§2) Host cells were seeded in 10-cm-diameter dishes and were transfected several days after plating with resistance test vector plasmid DNA and the envelope expression vector. Transfections were performed using a calcium-phosphate precipitation procedure. The cell culture media containing the DNA precipitate was replaced with fresh medium, from one to 24 hours, after transfection. Cell culture media containing resistance test vector viral particles was harvested one to four days after transfection and was passed through a […] filter before being used to infect target host cells, or being stored at −80° C. HIV capsid protein (p24) levels in the harvested cell culture media were determined by an EIA method as described by the manufacturer (SAIC; Frederick, Md.). Before infection, target cells (293 and 293/T) were plated in cell culture media. Control infections were performed using cell culture media from mock transfections (no DNA) or transfections containing the resistance test vector plasmid DNA without the envelope expression plasmid. One to three or more days after infection, the media was removed and cell lysis buffer (Promega) was added to each well. Cell lysates were assayed for luciferase activity (FIG. 3). The inhibitory effect of the drug was determined using the following equation:
(§3) % luciferase inhibition=1−(RLUluc[drug]÷RLUluc)×100
(§4) where RLUluc [drug] is the Relative Light Unit of luciferase activity in infected cells in the presence of drug, and RLUluc is the Relative Light Unit of luciferase activity in infected cells in the absence of drug. IC50values were obtained from the sigmoidal curves that were generated from the data by plotting the percent inhibition of luciferase activity vs. the log10 drug concentration. The percent luciferase stimulation is the negative of the % inhibition calculated using the formula above.
The M230L mutation was introduced into a wild-type (drug sensitive) resistance test vector using the mega-primer method for site-directed mutagenesis (Sakar and Sommar, Ibid.). The resulting resistance test vector containing the M230L mutation (M230L-RTV) was then tested using the phenotypic assay described earlier, and the results were compared to those determined using a genetically defined resistance test vector that was wild type at position 230. We determined the pattern of phenotypic susceptibility to the NNRTIs, delavirdine, nevirapine and efavirenz, in the M230L-RTV. […]

Row | Compound | drug-dependent stimulation of viral replication | reduction in susceptibility compared to wild type control RTV
1 | O=C1Nc2ccc(Cl)cc2[C@@](C#CC2CC2)(C(F)(F)F)O1 [efavirenz] | not | 23 fold
2 | CC(C)Nc1cccnc1N1CCN(C(=O)c2cc3cc(NS(C)(=O)=O)ccc3[nH]2)CC1 [delavirdine] | ~50% | 58 fold
3 | Cc1ccnc2c1NC(=O)c1cccnc1N2C1CC1 [nevirapine] | ~50% | 39 fold and 40 fold

Tested on: RTV-011073
Assay: Phenotypic susceptibility assay, RTV-011073
Type: cell-based, HIV
Details: patient 011073
From the text: as §1, §2, §3, §4
(§5) A resistance test vector was constructed as described in Example 1 from a virus sample obtained from patient 011073. The prior and current treatment regimens are unknown. Isolation of viral RNA and RT/PCR was used to generate a patient derived segment (PDS) that comprised viral sequences coding for all of PR and aa 1-313 of RT. The PDS was inserted into an indicator gene viral vector to generate a resistance test vector designated RTV-011073. RTV-011073 was then tested in a phenotypic assay to determine accurately and quantitatively the level of susceptibility to a panel of anti-retroviral drugs. […]

Row | Compound | drug-dependent stimulation of viral replication [%]
4 | O=C1Nc2ccc(Cl)cc2[C@@](C#CC2CC2)(C(F)(F)F)O1 [efavirenz] | ~80
5 | CC(C)Nc1cccnc1N1CCN(C(=O)c2cc3cc(NS(C)(=O)=O)ccc3[nH]2)CC1 [delavirdine] | ~90
6 | Cc1ccnc2c1NC(=O)c1cccnc1N2C1CC1 [nevirapine] | ~70

Same assay, conditions: patient 011073; V241S, K103N, I135T

Row | Compound | decrease in susceptibility [fold]
7 | O=C1Nc2ccc(Cl)cc2[C@@](C#CC2CC2)(C(F)(F)F)O1 [efavirenz] | > 450
8 | CC(C)Nc1cccnc1N1CCN(C(=O)c2cc3cc(NS(C)(=O)=O)ccc3[nH]2)CC1 [delavirdine] | > 250
9 | Cc1ccnc2c1NC(=O)c1cccnc1N2C1CC1 [nevirapine] | > 600

Tested on: RTV-011073/241V/277T
Assay: Phenotypic susceptibility assay, RTV-011073/241V/277T
Type: cell-based, HIV
Details: RTV-011073 with 241 and 277 reverted
From the text: The resistance test vectors containing a functional luciferase gene cassette were constructed and host cells were transfected with the resistance test vector DNA. The resistant test vectors contained patient-derived reverse transcriptase and protease sequences that were either susceptible or resistant to the antiretroviral agents, such as nucleoside reverse transcriptase inhibitors, (NRTIs) non-nucleoside reverse transcriptase inhibitors […] protease inhibitors. The resistance test vector viral particles produced by transfecting the resistance test vector DNA into host cells, either in the presence or absence of PRIs, were used to infect target host cells grown either in the absence of NRTIs or NNRTIs, or in the presence of increasing concentrations of the drug. The amount of luciferase activity produced in infected target host cells in the presence of varying concentrations of drug was compared to the amount of luciferase produced in infected target host cells in the absence of drug. […] The IC50 values were determined by plotting percent drug inhibition vs. log10 drug concentration. Stimulation of viral replication was measured as the percent increase in luciferase activity detected when infection occurs in the presence of drug as compared to in the absence of drug.
Host cells were seeded in 10-cm-diameter dishes and were transfected several days after plating with resistance test vector plasmid DNA and the envelope expression vector. […] HIV capsid protein (p24) levels in the harvested cell culture media were determined by an EIA method as described by the manufacturer (SAIC; Frederick, Md.). […] The inhibitory effect of the drug was determined using the following equation: […]
where RLUluc [drug] is the Relative Light Unit of luciferase activity in infected cells in the presence of drug, and RLUluc is the Relative Light Unit of luciferase activity in infected cells in the absence of drug. […] The percent luciferase stimulation is the negative of the % inhibition calculated using the formula above. […]

Row | Compound | reductions in susceptibility compared to wild type control RTV [fold]
10 | O=C1Nc2ccc(Cl)cc2[C@@](C#CC2CC2)(C(F)(F)F)O1 [efavirenz] | 54
11 | CC(C)Nc1cccnc1N1CCN(C(=O)c2cc3cc(NS(C)(=O)=O)ccc3[nH]2)CC1 [delavirdine] | 50
12 | Cc1ccnc2c1NC(=O)c1cccnc1N2C1CC1 [nevirapine] | 126

Tested on: RTV-013522
Assay: Phenotypic susceptibility assay, RTV-013522
Type: cell-based, HIV
Details: patient 013522
From the text: as §1, §2, §3, §4
as §5, with “patient 013522.” for “patient 011073.”, “of RT from all three samples.” for “of RT.”, “PDS were” for “PDS was”, “designated RTV-013522. RTV-013522” for “designated RTV-011073. RTV-011073”

Row | Compound | drug-dependent stimulation of viral replication [%]
13 | O=C1Nc2ccc(Cl)cc2[C@@](C#CC2CC2)(C(F)(F)F)O1 [efavirenz] | ~100
14 | CC(C)Nc1cccnc1N1CCN(C(=O)c2cc3cc(NS(C)(=O)=O)ccc3[nH]2)CC1 [delavirdine] | ~110
15 | Cc1ccnc2c1NC(=O)c1cccnc1N2C1CC1 [nevirapine] | ~90

Same assay, conditions: patient 013522; K103N, I135T, I270S

Row | Compound | decrease in susceptibility [fold]
16 | O=C1Nc2ccc(Cl)cc2[C@@](C#CC2CC2)(C(F)(F)F)O1 [efavirenz] | > 450
17 | CC(C)Nc1cccnc1N1CCN(C(=O)c2cc3cc(NS(C)(=O)=O)ccc3[nH]2)CC1 [delavirdine] | > 250
18 | Cc1ccnc2c1NC(=O)c1cccnc1N2C1CC1 [nevirapine] | > 600

Tested on: RTV-K103N/I135T
Assay: Phenotypic susceptibility assay, RTV-K103N/I135T
Type: cell-based, HIV-1
Details: site-directed K103N + I135T
From the text: as §1, §2, §3, §4
A resistance test vector containing two mutations, K103N and I135T (RTV-K103N/I135T) was constructed and tested in the phenotypic assay described earlier. The results were compared to those determined using a genetically defined resistance test vector that was wild type at position 103 and 135. We determined the pattern of phenotypic susceptibility to the NNRTIs, delavirdine, nevirapine and efavirenz, in RTV-K103N/I135T.

Row | Compound | drug-dependent stimulation of viral replication | reductions in susceptibility compared to wild type control RTV [fold]
19 | O=C1Nc2ccc(Cl)cc2[C@@](C#CC2CC2)(C(F)(F)F)O1 [efavirenz] | no drug-dependent stimulation | 80
20 | CC(C)Nc1cccnc1N1CCN(C(=O)c2cc3cc(NS(C)(=O)=O)ccc3[nH]2)CC1 [delavirdine] | no drug-dependent stimulation | 121
21 | Cc1ccnc2c1NC(=O)c1cccnc1N2C1CC1 [nevirapine] | no drug-dependent stimulation | 171

Tested on: RTV-1033, RTV-008973, RTV-757, RTV-008980 and RTV-1080
Assay: Phenotypic susceptibility assay, patient 1033 RTV pools
Type: cell-based, HIV
Details: range over five RTV pools of one patient
From the text: as §1, §2, §3, §4
Resistance test vectors were constructed as described in Example 1 from virus samples obtained from an individual patient at thirteen separate time points over a 2½-year period. This patient had been previously treated with two NRTIs (zidovudine and lamivudine) AZT, 3TC (NRTIS), and a PRI (indinavir) for a period of approximately 2 years at the time the first (97-309) and second (98-754) samples were obtained. The patient began taking a new anti-viral regimen including an NRTI (stavudine), an NNRTI (nevirapine), and two PRIs (nelfinavir and saquinavir) at the time the third sample (98-1032) was obtained. […]

Row | Compound | drug-dependent stimulation of viral replication [%] | reductions in susceptibility [fold]
22 | O=C1Nc2ccc(Cl)cc2[C@@](C#CC2CC2)(C(F)(F)F)O1 [efavirenz] | 30 to 170 | 16 to 300
23 | CC(C)Nc1cccnc1N1CCN(C(=O)c2cc3cc(NS(C)(=O)=O)ccc3[nH]2)CC1 [delavirdine] | 20 to 180 | 3 to 18
24 | Cc1ccnc2c1NC(=O)c1cccnc1N2C1CC1 [nevirapine] | 40 to 250 | > 600
